# System: HaCaT cells
# Experiment: ELTA labeling (32P-dATP, sequencing gel) of PAR isolated from H2O2-treated cells
# Type: cell-based
# Settings: HaCaT cells pre-treated with inhibitor prior to H2O2 induction of PAR (FIG. 6b)
# Method: FIG. 6A-6B illustrates the detection of ADP-ribose length using ELTA. (a) A sequencing gel of the ELTA labeling reaction of ADP-ribose monomer (lane 1), PAR (lane 2), and of ADP-ribose monomer and polymer isolated from in vitro ADP-ribosylated PARP1 by NAD^+ in the presence of the PARP inhibitor Olaparib (lane 3), by NAD^+ for 10 min in the absence of Olaparib (lane 4) and by NAD^+ for 30 min (lane 5). As a comparison, the ADP-ribose monomer and polymer isolated from in vitro ADP-ribosylated PARP1 by NAD+ with a trace of ^32P-NAD+ in the presence of Olaparib for 30 min (lane 6), by NAD^+ for 10 min in the absence of Olaparib (lane 7) and by NAD^+ for 30 min (lane 8). (b) A sequencing gel of the ELTA labeling reaction of ADP-ribose monomer and polymer isolated from in vitro ADP-ribosylated haPARP (lane 1), from untreated cancer cells (lane 2), from cancer cells with DNA damage (lane 3), from cancer cells with DNA damage and treated with PARP inhibitor (lane 4) and from cancer cells with DNA damage and treated with PARG inhibitor (lane 5).
# Next, the inventors tested whether ELTA can be used to examine PAR isolated from cells (FIG. 6b). PAR was retrieved from cells using a solid-phase extraction method that allows for the high recovery of PAR without any bias of different chain length. HaCaT cells were either untreated, H2O2-treated to induce PARylation, pre-treated with PARP inhibitor Olaparib prior to H2O2 induction of PAR, or pre-treated with inhibitor against the PAR-degrading enzyme PARG (PDD 00017273) prior to H2O2 induction of PAR. As a control, the inventors also isolated PAR from in vitro modified Herpetosiphon aurantiacus PARP (haPARP), which usually generates PAR of 2-25 mer (lane 1), using the same solid-phase extraction method. As expected, we observed significant PAR signals in H2O2-treated cell samples (FIG. 6b; lane 3), which is longer from the one isolated from haPARP (lane 1). […] Taken together, ELTA can assess the length of PAR isolated in vitro or from cells.
compound,measurement,value
O=C(c1cc(Cc2n[nH]c(=O)c3ccccc23)ccc1F)N1CCN(C(=O)C2CC2)CC1 [Olaparib],PAR signal isolated from cells,reduced the signal to background level
PDD 00017273,PAR length distribution isolated from cells,stronger signals were observed at a shorter range
same,PAR signal isolated from cells,enrichment of overall signals

# — US12601734B2, “Methods and uses of enzymatic labeling of ADP-ribose containing molecules” (THE JOHNS HOPKINS UNIVERSITY, priority 2018, dated 2026)
